Results published in patent publication US8470789B2, “Method for inducing and accelerating cells” (DCPrime B.V., priority 2008, dated 2013).

Key:
[1] = tested on: CD34+ MUTZ3 cells; experiment: Drug-induced differentiation of isolated CD34+ MUTZ3 cells; format: cell-based, human; conditions: for share of induced CD1a+ cells also expressing Langerin: CD34+ sorted cells
Description: (§1) For mitoxantrone and doxorubicin cultures, 0.1-0.2 million cells/ml of MUTZ3 progenitors or CD34+, CD14+ and double negative (DN) magnetic bead sorted (MACS) MUTZ3 subsets (Miltenyi Biotec, Bergisch Gladbach, Germany) were seeded in 12-well plates in MUTZ3 routine medium or MUTZ3-DC/LC medium in the absence or presence of 1.04 nM, 2.08 nM, 5.6 nM, 16.7 nM mitoxantrone or 16.7 nM or 100 nM doxorubicin and were cultured for 72-96 hours before quantification of viable cells by trypan blue exclusion and phenotypic characterization by flowcytometry. DC and LC were matured (as above) on day 3 or 4 for 24 hours and were functionally tested in mixed leukocyte reaction or migration assays. In case of ABC transporter inhibition, 200 nM Ko-143 was added on day 0 to block BCRP activity.
(§2) Cells were immunophenotyped using the following FITC- and for PE-conjugated Mabs reactive against: CD1a (1:25), CD54 (1:25), CD80 (1:25), CD86 (1:25), CD40 (1:10) (PharMingen, San Diego, Calif.), CD14 (1:25), HLA-DR (1:25), DC-SIGN (1:10) (BD Biosciences, San Jose, Calif.), CD83 (1:10), CD34 (1:10), Langerin (1:10) (Immunotech, Marseille, France). In short, 2.5 to 5·10^4 cells were washed in PBS supplemented with 0.1% BSA and 0.02% NaN3 and incubated with specific or corresponding control Mabs for 30 minutes at 4° C. Where applicable, AnnexinV and/or PI (Propidium iodide) were added after marker staining and 10 minutes prior to analysis. Cells were washed and analyzed on a FACS-calibur flow cytometer (Becton and Dickinson, San Jose, Calif.) equipped with CellQuest analysis software and the results were expressed as mean or median fluorescence intensity or the percentage of positive cells.
To see whether the skewing effect was due to CD34^+ cell death, automatically leading to an altered CD34^+/CD14^+ ratio or whether it induced differentiation of CD34^+ cells into CD14^+ cells and LC, isolated CD34^+ and CD14^+ cells were incubated with 16.7 nM mitoxantrone or 100 nM doxorubicin for 72 hours and were analyzed for differentiation induction.

[2] = tested on: MUTZ3 progenitors; experiment: 96 hour cytotox assay (Trypan blue exclusion); format: cell-based, human
Description: as §1
MUTZ3 progenitor cells were analyzed for their sensitivity to the cytostatic drug mitoxantrone. […] (An example of such trypan blue assay is: place a suitable volume of a cells suspension in appropriate tube add an equal volume of 0.4% Trypan blue and gently mix, let stand for 5 minutes at room temperature. Place 10 μl of stained cells in a hemocytometer and count the number of viable (unstained) and dead (stained) cells. Calculate the average number of unstained cells in each quadrant, and multiply by 2*10^4 to find cells/ml. The percentage of viable cells is the number of viable cells divided by the number of dead and viable cells, and the IC50 can be determined)

[3] = tested on: MUTZ3 progenitors; experiment: Expansion and DC marker expression of MUTZ3 progenitors cultured with drug (flow cytometry); format: cell-based, human
Description: as §1, §2
Similar experiments were carried out with the drug doxorubicin.

[4] = tested on: MUTZ3 subpopulations (CD14+, CD34+, DN); experiment: Apoptosis and cell death (Annexin V) in MACS-separated MUTZ3 subpopulations; format: cell-based, human
Description: as §1, §2

[5] = tested on: CD14+ MUTZ3 cells; experiment: Drug-induced differentiation of isolated CD14+ MUTZ3 cells; format: cell-based, human; conditions: 72 hours, vs PBS control
Description: as §1
as §2, with “In short, 2.5 to 5·10^4 cells were washed in PBS supplemented with 0.1% BSA and 0.02% NaN3 and incubated with specific or corresponding control Mabs for 30 minutes at 4° C. Where applicable, AnnexinV and/or PI (Propidium iodide) were added after marker staining and 10 minutes prior to analysis.” left out, “cells. […]” for “cells.”

[6] = tested on: MUTZ3-LC cultures; experiment: Acceleration of MUTZ3-LC differentiation in the presence of cytokines; format: cell-based, human
Description: The AML-derived CD34+ MUTZ3 cell line was cultured as described before (Masterson A. J. (2002) Blood 100, 701-703.). In brief, MUTZ3 progenitors were cultured in MEM-alpha (Minimum essential medium, Gibco) containing 20% fetal calves serum (FCS), 100 IU/ml sodium-penicillin, 100 microg/ml streptomycin, 2 mM L-glutamine (pen/strep/glut), 50 microM beta-mercaptoethanol (2ME) and 10% 5637 conditioned medium (MUTZ3 routine medium) in 12-well plates (Co-star) at a concentration of 0.2 million cells/ml and were passaged twice weekly. LC were cultured in MEM-alpha containing 20% FCS, pen/strep/glut, 2ME and 10 ng/ml TGF-beta 1 (Biovision, Mountain View, Calif.), 100 ng/ml rhGM-CSF (Sagramostim, Berlex) and 2.5 ng/ml TNFalpha (Strathmann Biotec) (MUTZ3-LC medium) for 10 days in 12-well plates at a concentration of 0.1 million cells/ml, adding cytokines at day 0, 4 and 7. Interstitial DC were cultured in MEM-alpha containing 20% FCS, pen/strep/glut, 2ME and 10 ng/ml IL-4 (R&D), 100 ng/ml rhGM-CSF and 2.5 ng/ml TNFalpha (MUTZ3-DC medium) Where applicable, immature DC and LC were matured, respectively, by adding 50 ng/ml TNFalpha, 100 ng/ml IL-6 (Strathmann Biotec), […] (Strathmann Biotec) and 1 microg/ml prostaglandin E2 (PGE2) (Sigma Aldrich) for 48 hours.
as §1, §2
Next we tested whether the addition of mitoxantrone or doxorubicin at the start of MUTZ3-LC cultures could boost differentiation. […] In FIG. 4A FSC/SSC plots of day 4 LC cultured with PBS or mitoxantrone and CD1a/Langerin expression on these cultures are depicted.

[7] = tested on: CD34+ heamatopoietic precursors isolated from human blood; experiment: Response of CD34+ heamatopoietic progenitors from blood to mitoxantrone; format: cell-based; conditions: 16.7 nM mitoxantrone
[8] = tested on: CD14+ monocytes isolated from blood; experiment: Response of CD14+ monocytes isolated from blood to mitoxantrone; format: cell-based, human
[9] = tested on: MUTZ3-DC and -LC cultures; experiment: Titration of mitoxantrone in MUTZ3-DC and -LC cultures, phenotype analysis; format: cell-based, human
Description: as §1, §2
In MUTZ3-DC and -LC cultures, a 2-step titration of the 16.7 nM mitoxantrone concentration was performed and DC/LC phenotypes were analyzed after 72-96 hours.

[10] = tested on: MUTZ3-DC; experiment: Trans-well migration towards CCL19 and CCL21; format: cell-based, human; conditions: day 4 mitoxantrone-generated DC
Description: as §1
(§3) If such mitoxantrone-generated DC are to be used for future vaccination strategies, they need to be functionally fully active. Therefore MUTZ3-DC cultured in the absence or presence of mitoxantrone, were analyzed in a trans-well assay for their capacity to migrate towards the chemokines CCL19 and CCL21 (FIG. 7A) and were tested in a MLR for their capacity to stimulate allogeneic T cell proliferation (FIG. 7B).

[11] = tested on: MUTZ3-DC / peripheral blood lymphocytes; experiment: Mixed leukocyte reaction (MLR), T cell proliferation; format: cell-based, human; conditions: day 4 mitoxantrone-generated DC
Description: 1·10^2-3·10^4 DC were co-cultured with 1·10^5 peripheral blood lymphocytes for 4 days in 96-wells plates in IMDM (Iscove's modified dulbecco's medium) containing 10% human pooled serum (HPS), pen/strep/glut and 2ME. At day 4, 2.5 μCi/ml [^3H]-thymidine (6.7 Ci/mmol, MP Biomedicals, Irvine, Calif.) was added per well for 16 hours. Plates were harvested onto glass fiber filtermats (Packard Instruments, Groningen, The Netherlands) using a Skatron cell harvester (Skatron Instruments, Norway), and [^3H]-thymidine incorporation was quantified using a Topcount NXT Microbetacounter (Packard, Meriden, Conn.).
as §3

[12] = tested on: human skin DC; experiment: Human skin explant DC migration after intradermal injection; format: cell-based
Description: To establish whether mitoxantrone could be beneficial as a local adjuvant, human skin explants were intra-dermally injected with GM-CSF and IL-4 in combination with 2.08 nM, 5.6 nM or 16.7 nM mitoxantrone and 6 mm punch biopsies were floated in medium containing the same concentration of mitoxantrone. Skin DC were allowed to migrate from the biopsies for 2 days, after which they were harvested, quantified and phenotyped.

[13] = 2.08 nM mitoxantrone, mature day 4 MUTZ3-DC/LC

## COc1ccc2c3c([nH]c2c1)[C@H](CC(C)C)N1C(=O)[C@H](CCC(=O)OC(C)(C)C)NC(=O)[C@@H]1C3 [Ko-143]
[1]; 200 nM Ko-143 added on day 0, mitoxantrone-treated CD34+ MUTZ3 cells
  abrogation of mitoxantrone-induced CD1a and Langerin expression by BCRP inhibitor: could not abrogate

## COc1cccc2c1C(=O)c1c(O)c3c(c(O)c1C2=O)C[C@@](O)(C(=O)CO)C[C@@H]3O[C@H]1C[C@H](N)[C@H](O)[C@H](C)O1 [doxorubicin]
[2]; cytotoxic effect
  IC70 concentration on MUTZ3: ~100 nM
[3]; 16.7 nM doxorubicin
  LC differentiation of MUTZ3 progenitors: no effects were observed
[3]; IC70 concentration of doxorubicin (~100 nM)
  LC differentiation of MUTZ3 progenitors: induced LC differentiation of MUTZ3 progenitors
[4]; 100 nM doxorubicin
  apoptosis and cell death in the three MUTZ3 subpopulations, compared with mitoxantrone: Comparable results
[1]; 100 nM doxorubicin, 72 hours
  CD1a and Langerin expression on CD34+ MUTZ3 cells: induced CD1a and Langerin expression
  share of induced CD1a+ cells also expressing Langerin: approximately 50%
[5]; 100 nM doxorubicin
  percentages of CD1a+ or Langerin+ cells in CD14+ cells: not affected

## O=C1c2c(O)ccc(O)c2C(=O)c2c(NCCNCCO)ccc(NCCNCCO)c21 [mitoxantrone]
[2]; Homo sapiens, 96 hour, Trypan blue exclusion, n=3
  IC50: 1.5 ± 0.5 nM
[2]; cytotoxic effect
  IC60 concentration on MUTZ3 progenitors: 5.6 nM
  IC70 concentration on MUTZ3: 16.7 nM
[3]; 5.6 nM and 16.7 nM mitoxantrone, 72 hours
  cell division (expansion): dramatically compromising cell division
[3]; 5.6 nM and 16.7 nM mitoxantrone, 72 hours, no differentiating cytokines
  differentiation of MUTZ3 progenitors (CD34+/CD14+ ratio, CD1a, Langerin, CD86, CD80): drove the surviving MUTZ3 progenitors to differentiation
[4]; mitoxantrone, 72 hours
  apoptosis and cell death, CD34+ population: sensitive to the drug
[4]; mitoxantrone, 72 hours, Annexin V
  apoptosis and cell death, CD14+ population: not affected
[4]; mitoxantrone, 72 hours, sensitivity relative to CD34+
  apoptosis and cell death, DN population: to a lesser extent
[1]; 16.7 nM mitoxantrone, 72 hours
  share of induced CD1a+ cells also expressing Langerin: approximately 50%
[1]; 16.7 nM mitoxantrone, 72 hours, n=3, p=0.02 CD1a, p=0.03 Langerin
  CD1a and Langerin expression in CD34+ subset: significant increase
[5]; 16.7 nM mitoxantrone
  percentages of CD1a+ or Langerin+ cells in CD14+ cells: not affected
[6]; 16.7 nM mitoxantrone, day 4
  expression levels of HLA-DR and CD54: higher expression levels
  expression of co-stimulatory molecules CD80 and CD86: enhanced expression
[6]; 16.7 nM mitoxantrone, day 4, 3 experiments, p=0.04 and p=0.02
  percentage of CD14+ and CD34+ cells: significant decrease
[6]; 16.7 nM mitoxantrone, day 4, p=0.03
  amount of cells expressing maturation marker CD83: significant raise
[6]; mitoxantrone with cytokines, control cultures 8-10 days
  day on which fully differentiated cells were obtained: 4 days
[6]; single dose 16.7 nM mitoxantrone at day 0, read day 4, control 25%
  cells CD1a hi Langerin+: 76%
[7]; 72 hours, Flt3-L and SCF
  CD34+ and CD14+ cell content: loss of most CD34 positive cells and an increase in CD14 positive cells
[7]; within 72 hours, LC-skewing cytokines, n=2
  percentage of CD1a+ Langerin+ cells: increase
[8]
  cell viability: no effect
  differentiation induction: nor was any differentiation induction observed
[9]; 2.08 nM mitoxantrone, 72-96 hours
  effect on MUTZ3-DC and -LC differentiation: robust effect
[9]; 2.08 nM mitoxantrone, day 4 vs day 7 control
  HLA-DR expression vs control cultures: even higher than on the control cultures
[9]; [13]
  amount of CD1a, Langerin, CD80, CD40 and CD83 expressing cells: increased
  expression levels of CD80, CD86, CD40 and HLA-DR: enhanced
[9]; cultures supplied with mitoxantrone
  Langerin expression in MUTZ3-DC cultures: increased
[10]
  capacity to migrate towards CCL19 and CCL21: comparable to day 7 matured control DC
[11]
  capacity to stimulate allogeneic T cell proliferation: equipped to induce T cell proliferation
[12]; 2.08 nM mitoxantrone with GM-CSF and IL-4, intradermal, 2 days
  increase in amount of migrated skin DC: 50-60%
[12]; 5.6 nM mitoxantrone with GM-CSF and IL-4, intradermal, 2 days
  increase in amount of migrated skin DC: 50-60%
[12]; 16.7 nM mitoxantrone with GM-CSF and IL-4, intradermal, 2 days
  amount of migrated skin DC: only slightly increased
[12]; low dose of mitoxantrone in plain medium, intradermal
  amount of skin emigrating DC: increased the amount of skin emigrating DC
